Reference: patent publication US20040152733A1, “Duloxetine for treatment of hot flashes” (priority 2004, published 2004)

What was measured:
[1] = test system: hot flashes; test: Randomized double-blind placebo controlled clinical trial of duloxetine for hot flashes (Example 1); settings: Group 1: Duloxetine 60 mg QD + Placebo; eight to twelve weeks
Procedure: Patients eligible for a clinical trial include women who are either 1) naturally menopausal; or 2) pre-menopausal but had undergone bilateral oophorectomy surgery within four weeks prior to the commencement of the study. All the women in the study experience a minimum of thirty five hot flashes per week. […] The women or men are divided into two groups for a randomized double-blind placebo controlled study.
The groups receive drug or placebo as illustrated below:
Group 1: Duloxetine (60 mg QD)+Placebo
For three weeks both groups are administered placebo only. For eight to twelve weeks thereafter, each group is administered drug or placebo. Data is collected (numbers/severity of hot flashes experienced) from each participant during and at the end of the test period.

[2] = test system: hot flashes; settings: menopausal women (survivors of breast cancer) suffering from hot flashes; versus only 20% with placebo; cited from earlier work

| Structure (SMILES) | incidence of hot flashes relative to the placebo groups (Groups 2 and 3) [1] | treated menopausal women reporting a greater than 50% decrease in hot flash frequency [2] [%] |
| --- | --- | --- |
| CNCCC(Oc1cccc2ccccc12)c1cccs1 (centres unmarked) [duloxetine, N-methyl-3-(1-naphthalenyloxy)-3-(2-thienyl)propanamine] | decrease | – |
| COc1ccc(C(CN(C)C)C2(O)CCCCC2)cc1 (centres unmarked) [venlafaxine] | – | 45 |
